Data on four compounds can be found in paper PMC12763877 (Journal of Experimental & Clinical Cancer Research : CR, 2025).

Data set [1] relates to pathological choroidal neovascularization. More on the design: method as in PMID 30208056. The settings on record: mouse model; cited from earlier work.
For data set [2], the target named is T1, APLNR (Homo sapiens, UniProt P35414).
T1 sequence (P35414 1-380): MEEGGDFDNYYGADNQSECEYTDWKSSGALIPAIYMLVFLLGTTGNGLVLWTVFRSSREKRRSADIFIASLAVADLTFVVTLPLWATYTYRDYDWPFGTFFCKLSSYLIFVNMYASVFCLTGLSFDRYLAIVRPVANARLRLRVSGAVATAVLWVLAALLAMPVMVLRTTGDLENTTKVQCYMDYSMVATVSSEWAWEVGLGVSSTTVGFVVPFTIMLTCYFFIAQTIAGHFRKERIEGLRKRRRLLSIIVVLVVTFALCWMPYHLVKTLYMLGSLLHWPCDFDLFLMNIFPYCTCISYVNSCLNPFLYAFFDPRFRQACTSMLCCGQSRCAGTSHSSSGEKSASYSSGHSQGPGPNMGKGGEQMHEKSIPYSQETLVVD
More on the design: expressed in transfected cells; host or cells: HEK293. The settings on record: cited from earlier work.

For data set [3], the system named is STING signaling pathway in HUVEC. In words: Western blot of STING pathway proteins. It counts as cell-based, human. The settings on record: NAC 5 mM pretreatment 2 h + candesartan 15 µM 48 h. The procedure:
(§1) Total protein was extracted using RIPA lysis buffer (Solarbio, China) supplemented with phenylmethylsulfonyl fluoride (PMSF; Thermo Fisher Scientific, USA), protease inhibitor cocktail (Roche, Switzerland), and phosphatase inhibitor cocktail (Roche, Switzerland). Protein concentration was determined using a BCA protein assay kit (Thermo Fisher Scientific, USA). Equal amounts of protein were separated by 10% SDS-polyacrylamide gel electrophoresis (SDS-PAGE) and transferred onto nitrocellulose (NC) membranes. […] All primary antibodies were purchased from Cell Signaling Technology (CST, USA), except for GAPDH, which was obtained from Proteintech (Wuhan, China). After washing, the membranes were incubated with HRP-conjugated goat anti-rabbit or anti-mouse IgG secondary antibodies (Biosharp, China) for 1 h at room temperature. Protein bands were visualized using an enhanced chemiluminescence (ECL) detection system and scanned using a chemiluminescence imaging system.
On the technique in general: Immunoblotting shows a protein as a band on a membrane.

The subject of data set [4] is HUVEC. In words: DNA damage: γ-H2AX western blot and alkaline comet assay. It counts as cell-based, human. The procedure:
as §1

In data set [5] the test system is HUVEC. Description: Wound healing and Transwell assays. It counts as cell-based, human. The settings on record: candesartan 15, 7.5, 3.75 µM; sunitinib 2 µM; 48 h. How it is done: HUVEC cells were digested and inoculated into 6-well plates, with 1 × 10^5 cells added to each hole. On the second day, the gun head was drawn vertically along the edge of the upper lid of the hole plate. The cells were washed twice with PBS, the scratched cells were removed, and the serum free medium containing drugs was added. The photos were taken and recorded under the microscope for 0 h and cultured in a 5% CO2 incubator at 37℃. After 48 h, the sample was taken and photographed for recording. The cell scratch area was calculated with Image J software.
Migration assays were performed using the Transwell cell culture insert. HUVEC (3 × 10^4 cells) were suspended with 100µL serum-free medium containing different concentrations of compounds and placed in the upper layer of the Transwell cell culture insert, and 300µL medium containing 10% FBS was placed below the cell-permeable membrane. Following an incubation (48 h), the cells that had migrated through the membrane were stained with 0.2% crystal violet for 30 min and count.

Data set [6] deals with FAK-MMP9 signaling in HUVEC. Description: Western blot of FAK and MMP-9. In kind it is cell-based, human. How it is done:
as §1

In data set [7] the test system is HUVEC. In words: Tube formation assay. In kind it is cell-based, human. The settings on record: candesartan 15, 7.5, 3.75 µM; sunitinib 2 µM. The procedure: The 96-well plate was coated with 50 µl matrix glue per well, and then HUVEC was inoculated into the 96-well plate coated with matrix glue with a density of 4 × 10^4 cells per well. Photos were taken with an optical microscope (Nikon, China) after culture at 37℃ and 5% CO2 for 6–8 h, and the length of the generated blood vessels was analyzed using ImageJ.

Data set [8] concerns zebrafish embryos. In words: Zebrafish embryo toxicity. In kind it is in vivo, zebrafish (Danio rerio). The settings on record: embryos exposed 12 to 48 hpf, survival. The procedure: Transgenic zebrafish Tg(flk: EGFP) were obtained from the China Zebrafish Resource Center and maintained at 28 ± 1 °C under a 14-hour light/10-hour dark cycle. […] Survival rates were recorded to calculate the median lethal concentration (LC₅₀). For the retinal angiogenesis assay, embryos at 1 day post fertilization (dpf) were transferred to E3 medium containing 5 mM CoCl₂·6 H₂O and 2.5 µg/mL GS4012 to induce hypoxia and abnormal vessel formation. At 3 dpf, test compounds were added and incubation continued until 5 dpf. Blank, model, and vehicle (≤ 0.1% DMSO) controls were included, with at least three replicates per group (n = 10–15 embryos). At 5 dpf, retinal vasculature was imaged using fluorescence microscopy and analyzed for branching number, vessel length, and density using ImageJ. Data are presented as mean ± standard deviation (SD) and analyzed using one-way ANOVA followed by Tukey’s post hoc test, with p < 0.05 considered statistically significant.
The zebrafish (Danio rerio) model was employed due to its distinct advantages, the optical transparency, which enable in vivo vascular visualization. […] Firstly, the 8 candidate compounds underwent preliminary toxicity evaluation in zebrafish embryos. […] At 48 hpf, the number of surviving embryos was quantified, and the lethal dose 50 (LD50) for each compound was determined based on the survival data. […]

SMILES strings stand for the structures.

For `CCN(CC)Cc1cc(Nc2ccnc3cc(Cl)ccc23)ccc1O` [Amodiaquine], the Pathological choroidal neovascularization entry in data set [1] was “reduces pathological choroidal neovascularization”. Also, the “Inhibition of APLN/APLNR signaling” value in data set [2] is listed as “inhibits APLN/APLNR signaling in a concentration-dependent manner”.

On to `CC(=O)N[C@@H](CS)C(=O)O` [NAC, N-acetylcysteine], for which the “Effect on candesartan-induced STING pathway upregulation” value in data set [3] is on record as “attenuated candesartan-induced upregulation of STING pathway components”. Further, the “Effect on candesartan-induced γ-H2AX expression” value in data set [4] (NAC 5 mM + candesartan 15 µM) is “significantly reduced γ-H2AX expression”. Further, the “Effect on candesartan-induced DNA damage (comet assay)” value in data set [4] (NAC 5 mM pre-treatment + candesartan 15 µM) is on record as “effectively mitigate candesartan-induced DNA damage”.

`CCN(CC)CCNC(=O)c1c(C)[nH]c(/C=C2\C(=O)Nc3ccc(F)cc32)c1C` [Sunitinib]: the “Migratory and invasive capacities of HUVECs” value in data set [5] was “significantly reduced the migratory and invasive capacities of HUVECs”. Further, the “Expression of MMP9 and FAK” value in data set [6] was “significantly decreased the expression of MMP9 and FAK”. For the same compound, in data set [7], the “Tube formation: mean mesh size and total mesh area” value is “increase the mean mesh and the total meshe area”; the “Tube formation: number of junctions, total segment length, number of meshes” value was “significantly reduced the number of junctions, total segment length, and the number of meshes”.

As to `CSCC[C@H](NC(=O)[C@@H]1CCCN1C(=O)CNC(=O)[C@H](CCCCN)NC(=O)[C@H](Cc1c[nH]cn1)NC(=O)[C@H](CO)NC(=O)[C@H](CC(C)C)NC(=O)[C@H](CCCNC(=N)N)NC(=O)[C@@H]1CCCN1C(=O)[C@H](CCCNC(=N)N)NC(=O)[C@@H](N)CCC(N)=O)C(=O)N1CCC[C@H]1C(=O)N[C@@H](C)C(=O)O` [Compound F13A], the “LD50(µM,48 h)” value in data set [8] stood at 2.85 ± 0.31 µM.
